pIC50: −log10 of the molar value. Marks after values point to notes of the source that are not given here.
Tests used:
[1] = test system: downstream effectors of PI3K; experiment: Preclinical xenograft model studies: phosphorylation of downstream effectors of PI3K; assay type: in vivo; settings: preclinical xenograft models, well-tolerated doses
[2] = test system: downstream targets of PI3K, including pAKT and pEBP1; experiment: Phosphorylation of downstream targets of PI3K in vitro and in vivo
[3] = test system: relapsed/refractory lymphoma and CLL; experiment: Phase 1 trial, lymphoma/CLL expansion cohort: best response; assay type: in vivo, human
Experimental: As part of a phase 1 single agent study in solid tumors, we administered Compound A to a dedicated expansion cohort of patients with relapsed/refractory lymphoma and CLL. The drug was administered orally daily, with continuous dosing in monthly cycles. A total of 15 patients were enrolled at three centers. An initial cohort of 3 patients was enrolled, followed by a safety review, with subsequent enrollment of the remaining 12 subjects. The median age of the patients was 66 years (range 28-81), 40% were male and 60% female.
This was a Phase 1, open-label, non-randomized trial of Compound A given orally as a single agent in subjects with lymphoma.
The key eligibility include the following: • Histologically confirmed diagnosis of relapsed or refractory lymphoma • Measureable disease • Adequate bone marrow function defined as: • ANC≥1000/mm^3 (CLL with ALC≥100,000/mm^3 required to have ANC≥500/mm^3) • Platelets≥30,000/mm^3 • Hemoglobin≥8 g/dL • Archival or fresh tumor tissue • No prior therapy with a selective PI3K inhibitor • Written informed consent. Results

[4] = Phase 1 trial, lymphoma/CLL expansion cohort: safety and tolerability; assay type: in vivo, human
class I PI3K isoform γ = class I PI3K isoform γ (Homo sapiens, UniProt P48736); settings: read-out: IC50 PI3K γ
Chain of class I PI3K isoform γ (P48736 whole entry, canonical isoform): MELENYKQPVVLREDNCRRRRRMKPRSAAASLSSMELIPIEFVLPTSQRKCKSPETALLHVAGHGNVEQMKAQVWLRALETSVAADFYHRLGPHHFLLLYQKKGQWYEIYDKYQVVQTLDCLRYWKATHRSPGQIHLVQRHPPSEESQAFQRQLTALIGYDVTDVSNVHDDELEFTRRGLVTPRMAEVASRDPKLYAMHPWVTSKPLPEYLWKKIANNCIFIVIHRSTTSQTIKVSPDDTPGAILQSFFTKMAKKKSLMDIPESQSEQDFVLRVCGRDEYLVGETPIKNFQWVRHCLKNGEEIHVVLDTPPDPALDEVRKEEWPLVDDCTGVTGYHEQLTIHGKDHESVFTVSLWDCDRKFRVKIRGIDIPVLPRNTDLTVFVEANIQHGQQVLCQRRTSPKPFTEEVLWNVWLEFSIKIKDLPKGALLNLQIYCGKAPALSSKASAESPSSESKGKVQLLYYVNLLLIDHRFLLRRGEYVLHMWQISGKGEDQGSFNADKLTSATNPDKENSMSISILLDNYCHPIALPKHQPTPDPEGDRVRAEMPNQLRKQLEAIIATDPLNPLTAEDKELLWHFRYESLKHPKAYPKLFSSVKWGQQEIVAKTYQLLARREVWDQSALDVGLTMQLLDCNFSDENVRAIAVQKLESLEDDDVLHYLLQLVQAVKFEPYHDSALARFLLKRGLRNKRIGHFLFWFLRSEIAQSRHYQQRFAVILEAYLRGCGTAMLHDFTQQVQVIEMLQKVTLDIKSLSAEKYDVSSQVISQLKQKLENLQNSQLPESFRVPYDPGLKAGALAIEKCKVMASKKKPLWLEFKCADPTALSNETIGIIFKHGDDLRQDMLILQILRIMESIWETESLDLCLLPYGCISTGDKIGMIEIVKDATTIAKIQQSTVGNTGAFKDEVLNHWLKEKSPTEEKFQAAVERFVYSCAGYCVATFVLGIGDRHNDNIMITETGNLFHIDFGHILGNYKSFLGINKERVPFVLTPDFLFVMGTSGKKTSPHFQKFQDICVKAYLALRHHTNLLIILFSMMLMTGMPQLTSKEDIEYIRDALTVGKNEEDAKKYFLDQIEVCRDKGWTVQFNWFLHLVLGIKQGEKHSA

class I PI3K isoform β = class I PI3K isoform β (Homo sapiens, UniProt P42338); settings: read-out: IC50 PI3K β
Chain of class I PI3K isoform β (P42338 whole entry, canonical isoform): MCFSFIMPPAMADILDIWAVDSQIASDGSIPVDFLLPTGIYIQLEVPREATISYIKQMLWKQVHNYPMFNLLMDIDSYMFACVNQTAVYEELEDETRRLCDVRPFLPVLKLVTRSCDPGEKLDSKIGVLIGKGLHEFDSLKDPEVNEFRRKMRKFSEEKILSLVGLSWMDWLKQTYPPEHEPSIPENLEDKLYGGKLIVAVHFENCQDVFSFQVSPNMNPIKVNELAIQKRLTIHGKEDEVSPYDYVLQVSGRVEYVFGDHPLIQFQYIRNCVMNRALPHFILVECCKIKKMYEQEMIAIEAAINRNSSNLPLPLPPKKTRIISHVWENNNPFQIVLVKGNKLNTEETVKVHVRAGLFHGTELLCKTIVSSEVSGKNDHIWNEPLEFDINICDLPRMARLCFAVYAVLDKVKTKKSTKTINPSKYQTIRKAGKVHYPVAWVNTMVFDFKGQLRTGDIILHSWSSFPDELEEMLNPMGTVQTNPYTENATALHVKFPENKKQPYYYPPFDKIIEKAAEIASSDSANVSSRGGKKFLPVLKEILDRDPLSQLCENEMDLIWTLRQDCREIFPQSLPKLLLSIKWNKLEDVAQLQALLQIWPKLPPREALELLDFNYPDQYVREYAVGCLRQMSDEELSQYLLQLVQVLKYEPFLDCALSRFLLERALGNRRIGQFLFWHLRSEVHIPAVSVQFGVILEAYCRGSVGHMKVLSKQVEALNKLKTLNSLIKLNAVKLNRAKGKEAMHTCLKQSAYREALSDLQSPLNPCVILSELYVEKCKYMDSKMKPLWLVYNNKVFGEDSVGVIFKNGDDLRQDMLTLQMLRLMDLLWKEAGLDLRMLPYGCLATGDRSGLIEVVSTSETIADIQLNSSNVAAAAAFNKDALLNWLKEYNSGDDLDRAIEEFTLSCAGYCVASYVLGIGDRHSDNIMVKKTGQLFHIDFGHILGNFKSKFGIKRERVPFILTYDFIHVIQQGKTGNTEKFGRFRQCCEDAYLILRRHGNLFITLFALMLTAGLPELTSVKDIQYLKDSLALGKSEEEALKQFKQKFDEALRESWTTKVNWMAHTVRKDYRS
Chain of class I PI3K isoform β (P27986 whole entry partner, canonical isoform): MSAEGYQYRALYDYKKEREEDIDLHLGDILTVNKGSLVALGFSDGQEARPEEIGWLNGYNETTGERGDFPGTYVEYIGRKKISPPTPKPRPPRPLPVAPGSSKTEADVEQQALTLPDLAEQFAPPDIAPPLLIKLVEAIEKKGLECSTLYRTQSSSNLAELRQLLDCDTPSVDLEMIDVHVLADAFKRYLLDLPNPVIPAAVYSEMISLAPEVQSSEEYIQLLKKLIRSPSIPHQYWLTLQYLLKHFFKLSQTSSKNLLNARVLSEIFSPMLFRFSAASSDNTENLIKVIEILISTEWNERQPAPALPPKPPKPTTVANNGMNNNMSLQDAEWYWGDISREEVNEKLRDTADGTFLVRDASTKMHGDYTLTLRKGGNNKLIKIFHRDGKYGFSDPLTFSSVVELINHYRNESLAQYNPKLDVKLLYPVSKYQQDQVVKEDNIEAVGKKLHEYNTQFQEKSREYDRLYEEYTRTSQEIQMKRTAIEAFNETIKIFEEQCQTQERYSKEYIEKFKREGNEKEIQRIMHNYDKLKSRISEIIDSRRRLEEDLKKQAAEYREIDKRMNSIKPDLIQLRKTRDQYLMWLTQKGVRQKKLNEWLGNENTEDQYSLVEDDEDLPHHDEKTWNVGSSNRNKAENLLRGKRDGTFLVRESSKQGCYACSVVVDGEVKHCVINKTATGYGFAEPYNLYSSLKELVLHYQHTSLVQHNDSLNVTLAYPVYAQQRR

xenograft tumor = experiment: Preclinical xenograft model studies: tumor growth; assay type: in vivo; settings: preclinical xenograft models, well-tolerated doses
PI3K pathway = experiment: Phase 1 study in patients with solid tumors: pharmacodynamics in surrogate and tumor tissue; assay type: in vivo, human
Experimental: (§1) The maximum tolerated dose (MTD) was defined as 600 mg (capsule) once daily (QD) on either a 21/7 (administered continuously for 21 days followed by 7 days rest) or a continuous daily dosing schedule. […] A dose-escalation study of a tablet formulation is ongoing. Ten additional patients have been enrolled in the expansion cohort to better define the activity of Compound A, and further studies are warranted.

[5] = Phase 1 study in solid tumors: maximum tolerated dose and dose-limiting toxicities; assay type: in vivo
Experimental: as §1

[6] = Phase 1 trial, lymphoma/CLL expansion cohort: plasma pharmacokinetics; assay type: in vivo, human; settings: 600 mg oral daily, cycle 1, eight patients
Text: The secondary objectives were to determine (a) the plasma pharmacokinetics of Compound A; and (b) the pharmacodynamic effects of Compound A on tumor tissue.
There was inter-patient variability, and the geometric mean was 7.6 fold.

mTOR = mTOR (Homo sapiens, UniProt P42345); settings: read-out: IC50 mTOR
class I PI3K isoform δ = class I PI3K isoform δ (Homo sapiens, UniProt O00329); settings: read-out: IC50 PI3K δ
Chain of class I PI3K isoform δ (O00329 whole entry, canonical isoform): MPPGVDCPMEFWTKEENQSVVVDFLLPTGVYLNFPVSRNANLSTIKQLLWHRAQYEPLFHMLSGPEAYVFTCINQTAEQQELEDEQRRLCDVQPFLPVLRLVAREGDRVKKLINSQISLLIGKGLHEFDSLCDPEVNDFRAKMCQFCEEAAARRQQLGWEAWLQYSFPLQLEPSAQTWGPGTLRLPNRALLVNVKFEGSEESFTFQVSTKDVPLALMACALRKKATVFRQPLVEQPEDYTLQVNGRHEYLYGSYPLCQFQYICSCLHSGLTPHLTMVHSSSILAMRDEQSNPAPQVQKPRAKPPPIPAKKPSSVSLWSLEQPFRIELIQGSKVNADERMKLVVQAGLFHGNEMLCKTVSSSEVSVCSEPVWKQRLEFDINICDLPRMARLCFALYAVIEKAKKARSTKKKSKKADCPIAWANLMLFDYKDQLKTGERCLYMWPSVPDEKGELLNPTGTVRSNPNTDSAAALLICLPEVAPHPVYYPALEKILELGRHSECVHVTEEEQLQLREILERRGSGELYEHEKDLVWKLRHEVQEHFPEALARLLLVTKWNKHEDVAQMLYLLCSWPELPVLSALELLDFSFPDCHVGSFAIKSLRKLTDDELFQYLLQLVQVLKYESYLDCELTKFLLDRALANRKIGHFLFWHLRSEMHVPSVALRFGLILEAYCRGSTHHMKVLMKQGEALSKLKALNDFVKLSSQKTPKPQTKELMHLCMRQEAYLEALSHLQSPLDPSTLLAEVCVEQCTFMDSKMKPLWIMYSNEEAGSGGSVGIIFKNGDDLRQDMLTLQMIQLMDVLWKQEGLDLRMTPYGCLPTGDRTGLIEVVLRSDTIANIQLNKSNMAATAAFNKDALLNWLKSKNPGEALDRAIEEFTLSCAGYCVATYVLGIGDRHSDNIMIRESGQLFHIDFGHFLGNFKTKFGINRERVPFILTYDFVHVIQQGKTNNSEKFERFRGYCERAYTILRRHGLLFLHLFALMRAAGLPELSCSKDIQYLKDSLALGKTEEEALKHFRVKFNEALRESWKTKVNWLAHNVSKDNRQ
Chain of class I PI3K isoform δ (P27986 whole entry partner, canonical isoform): as the sequence (P27986 whole entry partner, canonical isoform) above

[7] = Hodgkin Lymphoma, n = 2 evaluated
[8] = nineteen subjects, 600 mg capsule daily
[9] = nineteen subjects, unrelated to study drug

COc1ccc(Cl)c(Nc2nc3ccccc3nc2NS(=O)(=O)c2cccc(NC(=O)C(C)(C)N)c2)c1 [Compound A, N-(3-{[(3-{[2-chloro-5-(methoxy)phenyl]amino}quinoxalin-2-yl)amino]sulfonyl}phenyl)-2-methylalaninamide]
phosphorylation of downstream effectors of PI3K [1]: inhibited phosphorylation of downstream effectors of PI3K | phosphorylation of downstream targets of PI3K, including pAKT and pEBP1 [2]: inhibits phosphorylation | best response Stable Disease, number of patients ([3]; CLL/SLL, n = 5 evaluated, 600 mg capsule once daily, after cycle 2): 5^b | best response Stable Disease, number of patients ([3]; Follicular Lymphoma, n = 2 evaluated, 600 mg capsule once daily): 2^ | best response Progressive Disease, number of patients [3, 7]: 1 | best response Stable Disease, number of patients [3, 7]: 1^e | best response Stable Disease, number of patients ([3]; Transformed Lymphoma, n = 1 evaluated): 1^d | best response Complete Response, number of patients ([3]; Waldenstrom's Macroglobulinemia, n = 1 evaluated, complete response at cycle 14): 1^c | activity in patients ([3]; in vivo): active in CLL and low-grade lymphomas | grade 3-4 thrombocytopenia ([4]; 1/15 patients, oral daily continuous dosing): 6.7% | hyperglycemia, grade 1-2 event ([4]; 1 of 15 patients): 6.7% | hyperglycemia, grade 3-4 event ([4]; 1 of 15 patients): 6.7% | grade 3-4 neutropenia ([4]; 4/15 patients, oral daily continuous dosing): 26.7% | tolerability in patients with lymphoma and CLL ([4]; in vivo): well-tolerated | Patients requiring dose modification due to toxicity: Hyperglycemia ([4]; nineteen subjects): 1 (5) n (%) | Patients requiring dose modification due to toxicity: Neutropenia ([4]; nineteen subjects): 2 (11) n (%) | Patients requiring dose modification due to toxicity: Rash ([4]; nineteen subjects): 1 (5) n (%) | Abdominal Pain, All Adverse Events, All Grades [4, 8]: 4 (21) n (%) | Abdominal Pain, All Adverse Events, Grade ≥3 [4, 8]: 1 (5) n (%) | Abdominal Pain, Related Adverse Events, All Grades [4, 8]: 2 (11) n (%) | Abdominal Pain, Related Adverse Events, Grade ≥3 [4, 8]: 0 n (%) | Anemia, All Adverse Events, All Grades [4, 8]: 4 (21) n (%) | Anemia, All Adverse Events, Grade ≥3 [4, 8]: 3 (16) n (%) | Anemia, Related Adverse Events, All Grades [4, 8]: 1 (5) n (%) | Anemia, Related Adverse Events, Grade ≥3 [4, 8]: 0 n (%) | Cough, All Adverse Events, All Grades [4, 8]: 6 (32) n (%) | Cough, All Adverse Events, Grade ≥3 [4, 8]: 1 (5) n (%) | Cough, Related Adverse Events, All Grades [4, 8]: 0 n (%) | Cough, Related Adverse Events, Grade ≥3 [4, 8]: 0 n (%) | Diarrhea, All Adverse Events, All Grades [4, 8]: 12 (63) n (%) | Diarrhea, All Adverse Events, Grade ≥3 [4, 8]: 1 (5) n (%) | Diarrhea, Related Adverse Events, All Grades [4, 8]: 7 (37) n (%) | Diarrhea, Related Adverse Events, Grade ≥3 [4, 8]: 1 (5) n (%) | Dyspnea, All Adverse Events, All Grades [4, 8]: 4 (21) n (%) | Dyspnea, All Adverse Events, Grade ≥3 [4, 8]: 1 (5) n (%) | Dyspnea, Related Adverse Events, All Grades [4, 8]: 0 n (%) | Dyspnea, Related Adverse Events, Grade ≥3 [4, 8]: 0 n (%) | Fatigue, All Adverse Events, All Grades [4, 8]: 5 (26) n (%) | Fatigue, All Adverse Events, Grade ≥3 [4, 8]: 0 n (%) | Fatigue, Related Adverse Events, All Grades [4, 8]: 0 n (%) | Fatigue, Related Adverse Events, Grade ≥3 [4, 8]: 0 n (%) | Hyperglycemia, All Adverse Events, All Grades [4, 8]: 4 (21) n (%) | Hyperglycemia, All Adverse Events, Grade ≥3 [4, 8]: 1 (5) n (%) | Hyperglycemia, Related Adverse Events, All Grades [4, 8]: 4 (21) n (%) | Hyperglycemia, Related Adverse Events, Grade ≥3 [4, 8]: 1 (5) n (%) | Neutropenia, All Adverse Events, All Grades [4, 8]: 5 (26) n (%) | Neutropenia, All Adverse Events, Grade ≥3 [4, 8]: 5 (26) n (%) | Neutropenia, Related Adverse Events, All Grades [4, 8]: 4 (21) n (%) | Neutropenia, Related Adverse Events, Grade ≥3 [4, 8]: 4 (21) n (%) | Pruritus, All Adverse Events, All Grades [4, 8]: 4 (21) n (%) | Pruritus, All Adverse Events, Grade ≥3 [4, 8]: 1 (5) n (%) | Pruritus, Related Adverse Events, All Grades [4, 8]: 2 (11) n (%) | Pruritus, Related Adverse Events, Grade ≥3 [4, 8]: 0 n (%) | Pyrexia, All Adverse Events, All Grades [4, 8]: 5 (26) n (%) | Pyrexia, All Adverse Events, Grade ≥3 [4, 8]: 1 (5) n (%) | Pyrexia, Related Adverse Events, All Grades [4, 8]: 1 (5) n (%) | Pyrexia, Related Adverse Events, Grade ≥3 [4, 8]: 0 n (%) | Rash, All Adverse Events, All Grades [4, 8]: 4 (21) n (%) | Rash, All Adverse Events, Grade ≥3 [4, 8]: 1 (5) n (%) | Rash, Related Adverse Events, All Grades [4, 8]: 3 (16) n (%) | Rash, Related Adverse Events, Grade ≥3 [4, 8]: 1 (5) n (%) | Patients requiring dose modification due to toxicity ([4]; nineteen subjects, total): 7 (37) n (%) | Patients requiring dose modification due to toxicity: More than 1 event in the same patient ([4]; nineteen subjects, diarrhea, fever/pneumonia, fever/pneumonia/sepsis/ileus/fluid overload): 1 (5) n (%) | Patients requiring dose modification due to toxicity: Fever/hypotension [4, 9]: 1 (5) n (%) | Patients requiring dose modification due to toxicity: Respiratory infection [4, 9]: 1 (5) n (%) | pIC50 (class I PI3K isoform γ): 7.44 | pIC50 (class I PI3K isoform β): 6.42 | tumor growth (xenograft tumor): inhibited tumor growth | effect as monotherapy (PI3K pathway; human, in vivo): primarily anti-proliferative, not pro-apoptotic | PI3K pathway activation in surrogate tissue (PBMC, hair follicle, skin) and tumor tissue (PI3K pathway; once daily, patients with solid tumors): inhibited PI3K pathway activation | PI3K and ERK pathway inhibition (PI3K pathway; well-tolerated doses): robust PI3K and ERK pathway inhibition | maximum tolerated dose (MTD) ([5]; capsule, once daily (QD), 21/7 or continuous daily dosing schedule): 600 mg | dose-limiting toxicities ([5]; human, in vivo): Grade 3 rash and Grade 3 hypersensitivity | geometric mean accumulation (AUC) on day 28 [6]: 7.6 fold | mean (CV %) accumulation (AUC) on day 28 ([6]; CV 88.1%): approximately 11.2 fold | pIC50 (mTOR): < 4.82 | pIC50 (class I PI3K isoform δ): 7.64
